Columns and labels:
CaV2.2 [1] = target: T1, CaV2.2 (Homo sapiens, UniProt Q00975)
CaV2.2 [2] = target: T1, CaV2.2; test: cell-based

T1 sequence (Q00975 whole entry, looked up): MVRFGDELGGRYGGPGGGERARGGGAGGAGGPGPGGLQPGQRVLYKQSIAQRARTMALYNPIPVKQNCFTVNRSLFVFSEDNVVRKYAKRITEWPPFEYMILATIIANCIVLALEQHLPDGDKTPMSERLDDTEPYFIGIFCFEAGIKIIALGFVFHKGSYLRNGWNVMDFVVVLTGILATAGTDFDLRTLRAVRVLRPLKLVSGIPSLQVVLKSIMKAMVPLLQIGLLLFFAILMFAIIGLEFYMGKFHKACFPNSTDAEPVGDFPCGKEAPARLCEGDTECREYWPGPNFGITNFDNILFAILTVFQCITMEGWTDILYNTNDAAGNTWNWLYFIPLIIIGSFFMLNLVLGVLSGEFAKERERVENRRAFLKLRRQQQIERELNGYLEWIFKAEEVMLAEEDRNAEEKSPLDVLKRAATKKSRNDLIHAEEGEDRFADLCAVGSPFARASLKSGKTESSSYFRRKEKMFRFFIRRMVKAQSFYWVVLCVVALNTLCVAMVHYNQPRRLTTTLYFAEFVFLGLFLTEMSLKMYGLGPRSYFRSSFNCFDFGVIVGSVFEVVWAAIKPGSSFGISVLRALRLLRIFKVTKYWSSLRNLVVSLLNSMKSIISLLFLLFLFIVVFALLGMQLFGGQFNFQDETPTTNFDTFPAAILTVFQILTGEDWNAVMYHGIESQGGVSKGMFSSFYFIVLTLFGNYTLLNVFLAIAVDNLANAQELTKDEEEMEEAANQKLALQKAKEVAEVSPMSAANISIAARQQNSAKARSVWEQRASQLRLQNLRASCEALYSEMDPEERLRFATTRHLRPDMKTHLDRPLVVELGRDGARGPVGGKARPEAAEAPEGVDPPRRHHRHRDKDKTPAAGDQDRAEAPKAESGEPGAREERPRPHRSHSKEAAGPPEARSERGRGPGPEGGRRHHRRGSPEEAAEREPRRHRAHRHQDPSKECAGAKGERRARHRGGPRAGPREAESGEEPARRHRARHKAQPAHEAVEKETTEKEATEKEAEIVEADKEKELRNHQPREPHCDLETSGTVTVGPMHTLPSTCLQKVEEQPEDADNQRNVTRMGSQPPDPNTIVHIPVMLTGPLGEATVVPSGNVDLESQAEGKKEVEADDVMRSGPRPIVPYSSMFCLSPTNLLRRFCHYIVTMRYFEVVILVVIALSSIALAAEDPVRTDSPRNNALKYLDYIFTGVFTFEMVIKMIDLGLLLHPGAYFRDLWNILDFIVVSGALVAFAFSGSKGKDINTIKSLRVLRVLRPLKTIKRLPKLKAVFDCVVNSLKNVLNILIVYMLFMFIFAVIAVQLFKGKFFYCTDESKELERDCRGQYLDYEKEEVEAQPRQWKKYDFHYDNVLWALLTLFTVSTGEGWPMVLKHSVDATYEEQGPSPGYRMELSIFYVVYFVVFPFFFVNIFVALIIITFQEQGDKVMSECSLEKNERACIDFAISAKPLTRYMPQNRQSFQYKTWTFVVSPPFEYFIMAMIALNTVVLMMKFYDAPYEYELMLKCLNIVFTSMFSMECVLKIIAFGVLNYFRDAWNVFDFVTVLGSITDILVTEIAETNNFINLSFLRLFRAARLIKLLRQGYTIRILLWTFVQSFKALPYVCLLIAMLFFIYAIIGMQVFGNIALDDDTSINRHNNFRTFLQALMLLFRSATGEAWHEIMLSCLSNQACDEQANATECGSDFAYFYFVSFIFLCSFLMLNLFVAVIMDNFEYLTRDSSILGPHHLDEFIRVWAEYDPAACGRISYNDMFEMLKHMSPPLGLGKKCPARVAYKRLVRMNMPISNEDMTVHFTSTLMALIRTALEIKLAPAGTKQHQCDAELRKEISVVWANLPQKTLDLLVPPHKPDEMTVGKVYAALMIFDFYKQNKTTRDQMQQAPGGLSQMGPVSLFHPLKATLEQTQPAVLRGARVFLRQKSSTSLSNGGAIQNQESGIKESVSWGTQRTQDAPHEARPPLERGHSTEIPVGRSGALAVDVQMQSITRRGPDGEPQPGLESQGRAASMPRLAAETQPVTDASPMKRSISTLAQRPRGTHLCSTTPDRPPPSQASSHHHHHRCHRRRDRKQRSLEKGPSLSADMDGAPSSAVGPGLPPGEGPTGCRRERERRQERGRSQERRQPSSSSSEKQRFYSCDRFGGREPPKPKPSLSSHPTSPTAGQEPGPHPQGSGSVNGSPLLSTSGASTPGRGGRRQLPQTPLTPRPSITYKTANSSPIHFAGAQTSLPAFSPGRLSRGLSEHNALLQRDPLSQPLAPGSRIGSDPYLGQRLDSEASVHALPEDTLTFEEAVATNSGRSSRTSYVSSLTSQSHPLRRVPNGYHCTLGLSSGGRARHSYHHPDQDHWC

## CCCC[C@@H]1NC(=O)[C@H](CC(C)C)NC(=O)[C@H](CCCNC(=N)N)NC(=O)[C@H](CO)NC(=O)[C@@H]2CSSC[C@@H]3NC(=O)[C@H](CO)NC(=O)CNC(=O)[C@H]([C@@H](C)O)NC(=O)[C@H](CSSC[C@H](NC(=O)[C@H](C)NC(=O)[C@H](C)NC(=O)CNC(=O)CN)C(=O)N[C@@H](CCCCN)C(=O)NCC(=O)N[C@@H](CCCCN)C(=O)NCC(=O)N[C@@H](C)C(=O)N[C@@H](CCCCN)C(=O)N2)NC(=O)[C@H](CSSC[C@@H](C(=O)N[C@@H](C)C(=O)N[C@@H](C)C(=O)NCC(=O)NCC(=O)N[C@@H](CC(N)=O)C(=O)NCC(=O)N[C@@H](CC(C)C)C(=O)O)NC(=O)[C@H](CCCCN)NC(=O)CNC(=O)[C@H](CO)NC(=O)[C@H](CCCNC(=N)N)NC3=O)NC(=O)[C@H](CC(=O)O)NC(=O)[C@H](Cc2ccc(O)cc2)NC1=O [M-9]
CaV2.2 [1]
  LogEC50: -7.5
CaV2.2 [2]
  EC50: 31.9 nM
  IC50: 31.9 ± 2.6 nM

## CCCC[C@@H]1NC(=O)[C@H](CC(C)C)NC(=O)[C@H](CCCNC(=N)N)NC(=O)[C@H](CO)NC(=O)[C@@H]2CSSC[C@@H]3NC(=O)[C@H](CO)NC(=O)CNC(=O)[C@H]([C@@H](C)O)NC(=O)[C@H](CSSC[C@H](NC(=O)[C@H](C)NC(=O)[C@H](C)NC(=O)CNC(=O)CN)C(=O)N[C@@H](CCCCN)C(=O)NCC(=O)N[C@@H](CCCCN)C(=O)NCC(=O)N[C@@H](C)C(=O)N[C@@H](CCCCN)C(=O)N2)NC(=O)[C@H](CSSC[C@@H](C(=O)N[C@@H](C)C(=O)NCC(=O)NCC(=O)N[C@@H](CC(N)=O)C(=O)NCC(=O)N[C@@H](CC(C)C)C(=O)O)NC(=O)[C@H](CCCCN)NC(=O)CNC(=O)[C@H](CO)NC(=O)[C@H](CCCNC(=N)N)NC3=O)NC(=O)[C@H](CC(=O)O)NC(=O)[C@H](Cc2ccc(O)cc2)NC1=O [M-8]
CaV2.2 [1]
  LogEC50: -7.1
CaV2.2 [2]
  EC50: 78.7 nM

## CCCC[C@@H]1NC(=O)[C@H](CC(C)C)NC(=O)[C@H](CCCNC(=N)N)NC(=O)[C@H](CO)NC(=O)[C@@H]2CSSC[C@@H]3NC(=O)[C@H](CO)NC(=O)CNC(=O)[C@H]([C@@H](C)O)NC(=O)[C@H](CSSC[C@H](NC(=O)[C@H](C)NC(=O)CNC(=O)CN)C(=O)N[C@@H](CCCCN)C(=O)NCC(=O)N[C@@H](CCCCN)C(=O)NCC(=O)N[C@@H](C)C(=O)N[C@@H](CCCCN)C(=O)N2)NC(=O)[C@H](CSSC[C@@H](C(=O)N[C@@H](C)C(=O)NCC(=O)N[C@@H](CC(N)=O)C(=O)NCC(=O)N[C@@H](CC(C)C)C(=O)O)NC(=O)[C@H](CCCCN)NC(=O)CNC(=O)[C@H](CO)NC(=O)[C@H](CCCNC(=N)N)NC3=O)NC(=O)[C@H](CC(=O)O)NC(=O)[C@H](Cc2ccc(O)cc2)NC1=O [M-6]
CaV2.2 [1]
  LogEC50: -7.2
CaV2.2 [2]
  EC50: 67.8 nM

## CCCC[C@@H]1NC(=O)[C@H](CC(C)C)NC(=O)[C@H](CCCNC(=N)N)NC(=O)[C@H](CO)NC(=O)[C@@H]2CSSC[C@@H]3NC(=O)[C@H](CO)NC(=O)CNC(=O)[C@H]([C@@H](C)O)NC(=O)[C@H](CSSC[C@H](NC(=O)[C@H](C)NC(=O)[C@H](C)NC(=O)CNC(=O)CN)C(=O)N[C@@H](CCCCN)C(=O)NCC(=O)N[C@@H](CCCCN)C(=O)NCC(=O)N[C@@H](C)C(=O)N[C@@H](CCCCN)C(=O)N2)NC(=O)[C@H](CSSC[C@@H](C(=O)N[C@@H](C)C(=O)NCC(=O)N[C@@H](CC(N)=O)C(=O)NCC(=O)N[C@@H](CC(C)C)C(=O)O)NC(=O)[C@H](CCCCN)NC(=O)CNC(=O)[C@H](CO)NC(=O)[C@H](CCCNC(=N)N)NC3=O)NC(=O)[C@H](CC(=O)O)NC(=O)[C@H](Cc2ccc(O)cc2)NC1=O [M-7]
CaV2.2 [1]
  LogEC50: -7.3
CaV2.2 [2]
  EC50: 55.5 nM

Source: publication PMC10952433, “A Chemoenzymatic Approach To Produce a Cyclic Analogue of the Analgesic Drug MVIIA (Ziconotide)” (Angewandte Chemie (International Ed. in English), 2023)
